Experiment [1] deals with Smad2/Smad3 phosphorylation. Nature of the experiment: Phospho-Smad2/3 Inhibition Assay (western blot), Panc-1. In kind it is cell-based, human. The conditions noted are these: at 10 μM, Panc-1 pancreatic cancer cell line; starred symbols = activation. Put shortly: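 Western blotting of lysates (15-50 μg protein) read phosphorylation of Smad2 Ser465/467 and Smad3 Ser423/425. Before lysis, Panc-1 cells got 1 h of 10 ng/ml TGF-b1 following 3 h compound exposure at 37° C (10 μM final, or serial dilutions for IC50, 0.3% DMSO) after overnight 0.5% FBS starvation.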
A general note: Immunoblotting shows a protein as a band on a membrane.

For a further experiment, the system named is IL6. Nature of the experiment: IL-6 Quantification Assay (ELISA), LPS-stimulated RAW 264.7. In kind it is cell-based. Further details: inhibition: dose or concentration left out as unconfirmed. Particulars: Mus musculus, RAW264.7; read-out: IL-6: % inh. On the technique in general: In an ELISA, binding on a coated surface is turned into a signal by an enzyme label.

Another experiment has as its system Akt phosphorylation. Nature of the experiment: Akt Phosphorylation Assay (western blot), Panc-1. In kind it is cell-based, human. The conditions noted are these: at 10 μM, * = activation. The essentials:
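Phospho-Akt (Ser473) was measured by western blot in lysates of KRas G12D Panc-1 cells exposed to test compound for 6 h at 37 °C, either at 10 μM final with 0.3% DMSO or as serial dilutions for IC50. One format used overnight 0.5% FBS starvation followed by a 15 min pulse of 1.5 ng/ml EGF. The other used cells in 10% FBS with no stimulation.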

For the compound `CO[C@H]1CC[C@H](Nc2nc(-c3nccn3C)nn3cc(-c4ccn(C)n4)c(C(=O)NCCN4CCOCC4)c23)C1` (racemic) [Compound 185, rac 4-(((1S,3S)-3-methoxycyclo-pentyl)amino)-2-(1-methyl-1H-imidazol-2-yl)-6-(1-methyl-1H-pyrazol-3-yl)-N-(2-morpholino-ethyl)pyrrolo[2,1-f][1,2,4]triazine-5-carboxamide], the “% inh of Smad2/3 phosphorylation in Panc-1” value in experiment [1] is reported as “B* (B* = 26-45% activation)”. For the same compound, in the experiment on IL6, the inhibition is 25 to 49%. For the same compound, the “% inh of Akt phosphorylation in Panc-1” value in the experiment on Akt phosphorylation is given as “A (1-25% inhibition)”.

Take `CO[C@H]1CC[C@@H](Nc2nc(-c3nccn3C)nn3cc(-c4cccnc4)c(-c4ccccc4)c23)C1` (racemic) [Compound 193, rac N-((1R,3S)-3-Methoxycyclopentyl)-2-(1-methyl-1H-imidazol-2-yl)-5-phenyl-6-(pyridin-3-yl)pyrrolo[2,1-f][1,2,4]triazin-4-amine]: the “% inh of Smad2/3 phosphorylation in Panc-1” value in experiment [1] is given as “A (A = 1-25% inhibition)”. Moreover, the inhibition in the experiment on IL6 lay in the range of 75 to 100%. In addition, the “% inh of Akt phosphorylation in Panc-1” value in the experiment on Akt phosphorylation is given as “D* (85-100% activation)”.

Consider `COc1ccnc(N(C)c2nc(-c3nccn3C)nn3cc(-c4ccn(C)n4)c(C)c23)c1` [Compound 223, N-(4-Methoxypyridin-2-yl)-N,5-dimethyl-2-(1-methyl-1H-imidazol-2-yl)-6-(1-methyl-1H-pyrazol-3-yl)pyrrolo[2,1-f][1,2,4]triazin-4-amine], for which the “% inh of Smad2/3 phosphorylation in Panc-1” value in experiment [1] is reported as “B (B = 26-45% inhibition)”. Moreover, the inhibition in the experiment with IL6 is 0%. In the experiment on Akt phosphorylation, the “% inh of Akt phosphorylation in Panc-1” value is “B (26-49% inhibition)”.

Take `Cc1ccc(Nc2nc(-c3nccn3C)nn3cc(-c4ccn(C)n4)c(C)c23)nc1` [Compound 226, 5-Methyl-2-(1-methyl-1H-imidazol-2-yl)-6-(1-methyl-1H-pyrazol-3-yl)-N-(5-methylpyridin-2-yl)pyrrolo[2,1-f][1,2,4]triazin-4-amine]: the “% inh of Smad2/3 phosphorylation in Panc-1” value in experiment [1] is listed as “D (D = 76-100% inhibition)”. Further, the inhibition in the experiment with IL6 was in the range of 50 to 74%. Further, the “% inh of Akt phosphorylation in Panc-1” value with Akt phosphorylation is reported as “D* (85-100% activation)”.

Take `COCCNc1nc(-c2nccn2C)nn2cc(-c3ccncc3)c(-c3ccccc3)c12` [Compound 202, N-(2-Methoxyethyl)-2-(1-methyl-1H-imidazol-2-yl)-5-phenyl-6-(pyridin-4-yl)pyrrolo[2,1-f][1,2,4]triazin-4-amine]: the “% inh of Smad2/3 phosphorylation in Panc-1” value in experiment [1] is “A (A = 1-25% inhibition)”. Further, in the experiment on IL6, the inhibition is 50 to 74%. Besides, the “% inh of Akt phosphorylation in Panc-1” value with Akt phosphorylation is listed as “B (26-49% inhibition)”.

On to `CO[C@@H]1C[C@H]1Nc1nc(-c2nccn2C)nn2cc(-c3cccnc3)c(-c3ccccc3)c12` (racemic) [Compound 190, N-((1R,2R)-2-Methoxycyclopropyl)-2-(1-methyl-1H-imidazol-2-yl)-5-phenyl-6-(pyridin-3-yl)pyrrolo[2,1-f][1,2,4]triazin-4-amine], for which, in experiment [1], the “% inh of Smad2/3 phosphorylation in Panc-1” value is recorded as “A (A = 1-25% inhibition)”. In addition, the inhibition with IL6 was 50 to 74%. Also, in the experiment on Akt phosphorylation, the “% inh of Akt phosphorylation in Panc-1” value is given as “D* (85-100% activation)”.

Consider `CCOc1ccc(Nc2nc(-c3nccn3C)nn3cc(-c4ccn(C)n4)c(C)c23)nc1` [Compound 229, N-(5-Ethoxypyridin-2-yl)-5-methyl-2-(1-methyl-1H-imidazol-2-yl)-6-(1-methyl-1H-pyrazol-3-yl)pyrrolo[2,1-f][1,2,4]triazin-4-amine], for which, in experiment [1], the “% inh of Smad2/3 phosphorylation in Panc-1” value is reported as “A* (A* = 1-25% activation)”. Further, the inhibition with IL6 was in the range of 26 to 49%. Moreover, in the experiment on Akt phosphorylation, the “% inh of Akt phosphorylation in Panc-1” value was “D* (85-100% activation)”.

Turning to `COc1cc(Nc2nc(-c3nccn3C)nn3cc(-c4ccn(C)n4)c(C)c23)ncc1C1CC1` [Compound 238, N-(5-Cyclopropyl-4-methoxypyridin-2-yl)-5-methyl-2-(1-methyl-1H-imidazol-2-yl)-6-(1-methyl-1H-pyrazol-3-yl)pyrrolo[2,1-f][1,2,4]triazin-4-amine], in experiment [1], the “% inh of Smad2/3 phosphorylation in Panc-1” value is reported as 0 (0 = 0% inhibition). Also, the inhibition in the experiment with IL6 is 75 to 100%. Moreover, the “% inh of Akt phosphorylation in Panc-1” value in the experiment with Akt phosphorylation is listed as “D* (85-100% activation)”.

Consider `COCC1CCN(c2nc(-c3ccccn3)nn3cc(-c4ccn(C(C)C)n4)c(C)c23)C1` (racemic) [Compound 10, rac 6-(1-Isopropyl-1H-pyrazol-3-yl)-4-(3-(methoxymethyl)pyrrolidin-1-yl)-5-methyl-2-(pyridin-2-yl)pyrrolo[2,1-f][1,2,4]triazine], for which the “% inh of Smad2/3 phosphorylation in Panc-1” value in experiment [1] is listed as “A (A = 1-25% inhibition)”. Besides, the inhibition in the experiment with IL6 fell in the range of 25 to 49%. In addition, the “% inh of Akt phosphorylation in Panc-1” value with Akt phosphorylation is given as 0 (0% inhibition).

Consider `CO[C@H]1C[C@H](Nc2nc(-c3nccn3C)nn3cc(-c4cccnc4)c(-c4ccccc4)c23)C1` [Compound 192, N-((1r,3r)-3-Methoxycyclobutyl)-2-(1-methyl-1H-imidazol-2-yl)-5-phenyl-6-(pyridin-3-yl)pyrrolo[2,1-f][1,2,4]triazin-4-amine], for which the “% inh of Smad2/3 phosphorylation in Panc-1” value in experiment [1] is given as “A* (A* = 1-25% activation)”. Further, the inhibition with IL6 was in the range of 75 to 100%. Moreover, the “% inh of Akt phosphorylation in Panc-1” value with Akt phosphorylation is “D* (85-100% activation)”.

For the compound `COc1ccnc(Nc2nc(-c3nccn3C)nn3cc(-c4ccn(CCNC(=O)CCCC[C@H]5SC[C@H]6NC(=O)N[C@H]65)n4)c(C)c23)c1` [Compound 215, N-(2-(3-(4-((4-methoxypyridin-2-yl)amino)-5-methyl-2-(1-methyl-1H-imidazol-2-yl)pyrrolo[2,1-f][1,2,4]triazin-6-yl)-1H-pyrazol-1-yl)ethyl)-5-((3aR,4R,6aS)-2-oxohexahydro-1H-thieno[3,4-d]imidazol-4-yl)pentanamide], in experiment [1], the “% inh of Smad2/3 phosphorylation in Panc-1” value was “C (C = 46-75% inhibition)”. Moreover, the inhibition in the experiment with IL6 fell in the range of 1 to 24%. The “% inh of Akt phosphorylation in Panc-1” value in the experiment with Akt phosphorylation was “B* (26-49% activation)”.

With `COc1ccnc(Nc2nc(-c3nccn3C)nn3cc(-c4cccnc4)c(-c4ccccc4)c23)c1` [Compound 196, N-(4-Methoxypyridin-2-yl)-2-(1-methyl-1H-imidazol-2-yl)-5-phenyl-6-(pyridin-3-yl)pyrrolo[2,1-f][1,2,4]triazin-4-amine], the “% inh of Smad2/3 phosphorylation in Panc-1” value in experiment [1] was “C (C = 46-75% inhibition)”. Moreover, the inhibition in the experiment with IL6 is 75 to 100%. For the same compound, in the experiment on Akt phosphorylation, the “% inh of Akt phosphorylation in Panc-1” value is recorded as “D* (85-100% activation)”.

Consider `Cn1ccnc1-c1nc(NS(C)(=O)=O)c2c(-c3ccccc3)c(-c3ccccc3)cn2n1` [Compound 212, N-(2-(1-Methyl-1H-imidazol-2-yl)-5,6-diphenylpyrrolo[2,1-f][1,2,4]triazin-4-yl) methanesulfonamide], for which the “% inh of Smad2/3 phosphorylation in Panc-1” value in experiment [1] was “C (C = 46-75% inhibition)”. For the same compound, the inhibition in the experiment with IL6 lay within 1 to 24%. For the same compound, the “% inh of Akt phosphorylation in Panc-1” value in the experiment with Akt phosphorylation is given as “A* (1-25% activation)”.

Consider `Cn1ccnc1-c1nc(O)c2c(-c3ccccc3)c(-c3cccnc3)cn2n1` [Compound 189, 2-(1-Methyl-1H-imidazol-2-yl)-5-phenyl-6-(pyridin-3-yl)pyrrolo[2,1-f][1,2,4]triazin-4-ol], for which the “% inh of Smad2/3 phosphorylation in Panc-1” value in experiment [1] is given as “B (B = 26-45% inhibition)”. Besides, the inhibition with IL6 was determined as 0%. In addition, the “% inh of Akt phosphorylation in Panc-1” value in the experiment on Akt phosphorylation is on record as “B (26-49% inhibition)”.

In the case of `COc1ccnc(Nc2nc(-c3nccn3C)nn3cc(-c4ccn(C)n4)c(C(=O)NCC(F)(F)F)c23)c1` [Compound 174, 4-((4-Methoxypyridin-2-yl)amino)-2-(1-methyl-1H-imidazol-2-yl)-6-(1-methyl-1H-pyrazol-3-yl)-N-(2,2,2-trifluoro-ethyl)pyrrolo[2,1-f][1,2,4]triazine-5-carboxamide], in experiment [1], the “% inh of Smad2/3 phosphorylation in Panc-1” value is recorded as “A* (A* = 1-25% activation)”. Besides, the inhibition in the experiment with IL6 was in the range of 1 to 24%. Moreover, the “% inh of Akt phosphorylation in Panc-1” value with Akt phosphorylation is “D* (85-100% activation)”.

With `CO[C@H]1C[C@H](Nc2nc(-c3nccn3C)nn3cc(-c4ccccc4)c(-c4ccccc4)c23)C1` [Compound 203, N-((1r,3r)-3-Methoxycyclobutyl)-2-(1-methyl-1H-imidazol-2-yl)-5,6-diphenylpyrrolo[2,1-f][1,2,4]triazin-4-amine], the “% inh of Smad2/3 phosphorylation in Panc-1” value in experiment [1] is “D (D = 76-100% inhibition)”. The inhibition in the experiment with IL6 fell in the range of 75 to 100%. For the same compound, the “% inh of Akt phosphorylation in Panc-1” value with Akt phosphorylation was “D (85-100% inhibition)”.

`Cc1c(-c2ccn(C)n2)cn2nc(-c3nccn3C)nc(Nc3cc(N4CCOCC4)ccn3)c12` [Compound 222, 5-Methyl-2-(1-methyl-1H-imidazol-2-yl)-6-(1-methyl-1H-pyrazol-3-yl)-N-(4-morpholinopyridin-2-yl)pyrrolo[2,1-f][1,2,4]triazin-4-amine]: the “% inh of Smad2/3 phosphorylation in Panc-1” value in experiment [1] is on record as “A* (A* = 1-25% activation)”. The inhibition in the experiment on IL6 was in the range of 50 to 74%. Also, in the experiment on Akt phosphorylation, the “% inh of Akt phosphorylation in Panc-1” value is “D* (85-100% activation)”.

As to `CO[C@H]1CC[C@H](Nc2nc(-c3nccn3C)nn3cc(-c4ccn(C)n4)c(C(=O)NCC(F)(F)F)c23)C1` (racemic) [Compound 181, 4-(((1S,3S)-3-Methoxycyclopentyl)amino)-2-(1-methyl-1H-imidazol-2-yl)-6-(1-methyl-1H-pyrazol-3-yl)-N-(2,2,2-trifluoroethyl)pyrrolo[2,1-f][1,2,4]triazine-5-carboxamide], the “% inh of Smad2/3 phosphorylation in Panc-1” value in experiment [1] is reported as “A (A = 1-25% inhibition)”. In addition, the inhibition with IL6 is 50 to 74%. The “% inh of Akt phosphorylation in Panc-1” value in the experiment on Akt phosphorylation is listed as “B* (26-49% activation)”.
